Assay [1] relates to PARP inhibitor-resistant breast cancer (HCC1937) cells. The assay is described as follows: Cell viability (MTT) in PARP inhibitor-resistant cancer cell line. Type of assay: cell-based, human. Conditions: ADPR 1 mM, peptide 25 μM or CPP-peptide 10 μM alone, 96 hours. The method, then:
Specifically, 2.5×10^3 PARP inhibitor-resistant breast cancer (HCC1937) cells were cultured in a 96-well plate for 24 hours under 37° C. and 5% CO2 conditions.
The cells were then divided into the following groups and treated with each peptide according to Examples at GI50 concentration alone or in combination. • 1) Untreated group • 2) Group treated with PARP inhibitor (Olaparib) at 2 μM concentration • 3) Group treated with ADPR at 1 mM concentration alone • 4) Groups treated with each peptide of Examples 1 to 6 at 25 μM concentration alone • 5) Groups treated with each CPP-peptide of Examples 15 to 20 at 10 μM concentration alone • 6) Group treated in combination with ADPR at 1 mM concentration and each peptide of Examples 1 to 6 at 25 μM concentration (Combination 1) • 6) Group treated in combination with ADPR at 1 mM concentration and CPP-peptide of Examples 15 to 20 at 10 μM concentration (Combination 2)
(§1) The cells were then cultured for another 96 hours under 37° C. and 5% CO2 conditions, and 10 μl of 3-(4,5-dimethylthiazol-2-yl)-2,5-diphenyltetrazolium bromide reagent was added to each well and reacted for 1 hour. The reagent was removed at the end of the reaction, 200 μl of dimethyl sulfoxide was then added to each well, and the absorbance was measured to determine the cell viability.

Assay [2] deals with Breast cancer (HCC1937) cells. The assay is described as follows: HCC1937 cell viability (MTT), peptides and ADP-ribose alone or in combination. The class given is cell-based, human. The following applies: treated groups vs untreated, ADPR 1 mM, peptide 25 μM, CPP-peptide 10 μM, 96 hours. The protocol:
2.5×10^3 Breast cancer (HCC1937) cells were cultured in a 96-well plate for 24 hours under 37° C. and 5% CO2 conditions, and then divided into the following groups and treated with each peptide according to Examples at GI50 concentration alone or in combination. • 1) Untreated group • 2) Group treated with ADPR at 1 mM concentration alone • 3) Group treated with peptide of Example 2 at 25 μM concentration alone • 4) Group treated with each CPP-peptide of Example 16 at 10 μM concentration alone • 5) Group treated in combination with ADPR at 1 mM concentration and peptide of Example 2 at 25 μM concentration (Combination 1) • 6) Group treated in combination with ADPR at 1 mM concentration and CPP-peptide of Example 16 at 10 μM concentration (Combination 2)
as §1

Here are results for 1 compound from patent US20250250310A1, “COMBINATION THERAPY WITH ADP-RIBOSE BINDING PEPTIDE AND ADP-RIBOSE FOR PREVENTION OR TREATMENT OF CANCER” (PEARLSINMIRES CO., LTD., priority 2023, published 2025).

Take `Nc1ncnc2c1ncn2[C@@H]1O[C@H](COP(=O)(O)OP(=O)(O)OC[C@H]2O[C@@H](O)C(O)C2O)C(O)C1O` (some centres unmarked) [ADP-ribose]: in assay [1], the “cell viability, single treatment” value is “significantly reduced cell viability”. Besides, in assay [2], the cell viability entry is recorded as “viability was reduced”.
